melting point: 98 to 103 °C
SMILES: Cc1c(C(=O)C2C(=O)C3CCC(C3)C2=O)ccc(S(C)(=O)=O)c1C1=NOC(CCl)C1 (stereo not shown) [Compound 2.2, 3-[2-Methyl-3-(5-chloromethyl-4,5-dihydroisoxazol-3-yl)-4-methyl-sulfonylbenzoyl]bicyclo[3.2.1]octane-2,4-dione]
